Assay [1] addresses T1, E. coli KARI Ec_IlvC variant Ec_IlvC^B8-his6 (Q110V, S78D), SEQ ID NO: 27 (Escherichia coli, UniProt P05793, Q110V/S78D).
T1 sequence (P05793 with tags, fused parts or gaps S78D/Q110V): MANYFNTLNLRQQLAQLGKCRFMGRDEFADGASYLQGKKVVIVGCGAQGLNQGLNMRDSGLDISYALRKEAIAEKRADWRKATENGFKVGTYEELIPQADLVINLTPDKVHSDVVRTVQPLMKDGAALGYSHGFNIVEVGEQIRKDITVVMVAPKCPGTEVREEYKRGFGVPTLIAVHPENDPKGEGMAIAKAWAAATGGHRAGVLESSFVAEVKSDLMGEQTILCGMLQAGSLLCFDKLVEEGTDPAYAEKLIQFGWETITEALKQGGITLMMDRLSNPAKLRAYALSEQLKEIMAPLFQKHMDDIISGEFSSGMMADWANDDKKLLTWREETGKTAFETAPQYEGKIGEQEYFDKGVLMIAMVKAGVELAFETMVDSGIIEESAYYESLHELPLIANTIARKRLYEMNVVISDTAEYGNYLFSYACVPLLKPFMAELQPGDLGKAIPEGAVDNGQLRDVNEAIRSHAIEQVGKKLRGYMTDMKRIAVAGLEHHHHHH
Briefly: KARI cuvette assay, purified Ec_IlvC^B8-his6. It is filed as biochemical. The procedure: (§1) KARI cuvette assay: KARI activity was assayed kinetically by monitoring the decrease in NAD(P)H concentration by measuring the absorbance at 340 nm. A reaction buffer was prepared containing 250 mM potassium phosphate pH 7, 1 mM DTT and 10 mM MgCl2. Cell pellets were resuspended (0.25 g wet weight/mL buffer) in 250 mM potassium phosphate (KPi) buffer containing 1 mM DTT and 10 mM MgCl2. The resuspended cells were lysed by sonication for 1 min with a 50% duty cycle and pelleted at 11000×g and 4° C. for 15 min. A reaction mixture consisting of 910 μl reaction buffer, 50 μl acetolactate, and 20 μl lysate was prepared in a cuvette. The reaction was initiated by addition of 20 μL of 10 mM NAD(P)H. A substrate free control was conducted using reaction buffer without the addition of acetolactate.
Purification of KARI: Cell pellets used for purification were resuspended in purification buffer A (20 mM Tris, 20 mM imidazol, 100 mM NaCl, 10 mM MgCl2, pH 7.4). KARI was purified by IMAC (Immobilized metal affinity chromatography) over a 1 ml Histrap High Performance (histrap HP) column pre-charged with Nickel (GE Healthcare) using an Akta FPLC system (GE Healthcare). […]

Assay [2] addresses T2, E. coli KARI Ec_IlvC variant Ec_IlvC^2H10-his6 (A71S, R76D, S78D, Q110A), SEQ ID NO: 31 (Escherichia coli, UniProt P05793, A71S/Q110A/R76D/S78D).
T2 construct: T37 values cited for the gene on pGV1976
T2 sequence (P05793 with tags, fused parts or gaps A71S/R76D/S78D/Q110A): T1 sequence (P05793 with tags, fused parts or gaps S78D/Q110V) with A71S, R76D, V110A
Briefly: KARI assay, purified Ec_IlvC^2H10-his6. It counts as biochemical. As to conditions: acetolactate as substrate. The procedure: as §1, with “The reaction was initiated by addition of 20 μL of 10 mM NAD(P)H. A substrate free control was conducted using reaction buffer without the addition of acetolactate.” left out
Only 20% of the enzymes of the recombination library were active on NADH. After screening 1,000 clones using the NADH depletion assay at 340 nm, 26 KARI variants were selected for a rescreen by the high-throughput assay described in Example 14 and eight thereof were expressed in 25 ml LBamp medium in shake flasks according to the protocol for cell growth and protein expression in shake flasks as described in Example 14, purified according to the protocol for purification of KARI enzymes as described in Example 14, and NAD(P)H depletion at 340 nm was measured again. […] The KM values of variants Ec_llvC^2H10-his6 and Ec_llvC^6E6-his6 were measured and the catalytic efficiencies were calculated.

Numbering of substitutions follows the chain as printed.

With `NC(=O)C1=CN([C@@H]2O[C@H](COP(=O)(O)OP(=O)(O)OC[C@H]3O[C@@H](n4cnc5c(N)ncnc54)[C@H](O)[C@@H]3O)[C@@H](O)[C@H]2O)C=CC1` [NADH, nicotinamide adenine dinucleotide], the catalytic efficiency (kcat/KM) in assay [1] (purified, acetolactate as substrate) is 31775 M⁻¹ s⁻¹; in assay [2], 60,322 M^−1 * s^−1. The “(kcat/KM with NADH)/(kcat/KM of Ec_IlvC^his6 with NADPH)” value in assay [1] (relative to Ec_IlvC^his6 with NADPH) stood at 36%.

Usually kcat/KM stands for the second-order rate constant that governs catalysis at low substrate concentration.

Source of the values: patent US8097440B1, “Engineered microorganisms capable of producing target compounds under anaerobic conditions” (Gevo, Inc., priority 2008, dated 2012).
